11 compounds from ChEMBL document CHEMBL1201862, “PubChem BioAssay data set” (2004) can be followed below.

Some test systems named below: COLO 205; DU-145; EKVX; HCT-116; Hs-578T; K562; Malme-3M; NCI-H23; NCI/ADR-RES; OVCAR-5; SF-295; SK-MEL-28; SK-MEL-2; SK-OV-3; T47D; TK-10; U-251; UACC-257; UACC-62; PC-3.
Common to all, as to experiment: growth of human tumour cells (NCI), 48 h

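Briefly, cells in 96-well plates were exposed to five compound concentrations for 48 h, and endpoints were estimated by linear interpolation. GI50 = concentration required for 50% inhibition of growth.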 Active and inactive are the calls of the source. Rule as the data show it: active = GI50 up to about 1.1 µM and inactive = higher.

Take `COC(=O)C(Cc1c(C2Nc3ccccc3C2CC(NC(=O)CNC(C)=O)C(=O)OC)[nH]c2ccccc12)NC(=O)CNC(C)=O` (centres undefined): the GI50 in the experiment on COLO 205 was > 100 µM (inactive); in the experiment with DU-145, > 100 µM (inactive); in the experiment on EKVX it was > 100 µM (inactive); with HCT-116, > 100 µM (inactive); in the experiment on Hs-578T, > 72.6 µM (inactive); in the experiment with K562, > 100 µM (inactive). For the same compound, the GI50 with Malme-3M, with NCI-H23, in the experiment with NCI/ADR-RES, in the experiment on OVCAR-5, with SF-295 and with SK-MEL-28 was > 100 µM (inactive) throughout. For the same compound, the GI50 with SK-MEL-2 is > 86.9 µM (inactive); with SK-OV-3, > 100 µM (inactive); in the experiment with T47D it was > 100 µM (inactive); with TK-10, > 100 µM (inactive); in the experiment on U-251, > 100 µM (inactive); in the experiment on UACC-257 it was > 100 µM (inactive). Also, the GI50 in the experiment on UACC-62 is > 100 µM (inactive).
`O=C(c1ccc(Cl)cc1Cl)N(C(=O)N1CCCCC1)c1ccccc1`: the GI50 in the experiment on COLO 205 was > 100 µM (inactive); in the experiment with DU-145, > 100 µM (inactive); in the experiment with EKVX, 5.45 µM (inactive); in the experiment with HCT-116 it was > 100 µM (inactive); in the experiment with Hs-578T, > 100 µM (inactive); in the experiment on K562 it was > 100 µM (inactive). Further, the GI50 with Malme-3M is 5.94 µM (inactive); in the experiment with NCI-H23 it was > 100 µM (inactive); with NCI/ADR-RES it was > 100 µM (inactive); with OVCAR-5, 69.3 µM (inactive); in the experiment on PC-3, > 100 µM (inactive); with SF-295 it was > 100 µM (inactive). Also, the GI50 in the experiment on SK-MEL-28, in the experiment with SK-MEL-2, in the experiment on SK-OV-3, in the experiment with TK-10, in the experiment on U-251 and in the experiment with UACC-257 was > 100 µM (inactive) in each case. Besides, the GI50 with UACC-62 was > 100 µM (inactive).
As for `CCOP(=O)(OCC)C1CC(O)CN1OC(=O)C(C)(C)C` (centres undefined), the GI50 in the experiment on COLO 205, in the experiment on DU-145, in the experiment on EKVX, in the experiment on HCT-116, in the experiment with Hs-578T and in the experiment on K562 was > 100 µM (inactive) each time. The GI50 in the experiment with Malme-3M, in the experiment with NCI-H23, with NCI/ADR-RES, in the experiment with OVCAR-5, in the experiment on PC-3 and in the experiment with SF-295 was > 100 µM (inactive) each time. For the same compound, the GI50 in the experiment with SK-MEL-28, with SK-MEL-2, in the experiment on SK-OV-3, in the experiment with TK-10, in the experiment with U-251 and in the experiment on UACC-257 was > 100 µM (inactive) in each case. The GI50 in the experiment on UACC-62 is > 100 µM (inactive).
Consider `Cc1cc(C)c2c(c1)C/C(=C\c1cccc(C)c1C(=O)O)C2=O`, for which the GI50 is 52.2 µM (inactive) in the experiment on DU-145; 60.7 µM (inactive) in the experiment with EKVX; 45.9 µM (inactive) with HCT-116; 31.1 µM (inactive) in the experiment with K562; 58.1 µM (inactive) in the experiment on Malme-3M; 63.2 µM (inactive) in the experiment on NCI-H23. Also, the GI50 with OVCAR-5 was 99.5 µM (inactive); in the experiment with PC-3, 39.5 µM (inactive); in the experiment with SF-295, 78 µM (inactive); in the experiment with SK-MEL-28, 87.9 µM (inactive); in the experiment on SK-MEL-2 it was 89.9 µM (inactive); in the experiment with T47D it was > 100 µM (inactive). The GI50 with TK-10 was > 100 µM (inactive); with UACC-257, 33.3 µM (inactive); with UACC-62 it was 47.8 µM (inactive).
As to `O=C1C=C/C(=N\N=C(c2ccccc2)c2ccccc2)O1`, the GI50 in the experiment on COLO 205, with DU-145, with EKVX, with K562, in the experiment with Malme-3M and in the experiment on NCI-H23 was > 10 µM (inactive) in each case. For the same compound, the GI50 with PC-3, with SF-295, in the experiment with SK-MEL-28, with SK-OV-3, with T47D and in the experiment on TK-10 was > 10 µM (inactive) throughout. The GI50 in the experiment with UACC-257 and with UACC-62 was > 10 µM (inactive) in each case.
As to `CCC1(O)C(=O)OCc2c1cc1n(c2=O)Cc2cc3c(N)cccc3nc2-1` (centres undefined) [RS-9-Aminocamptothecin], the GI50 in the experiment with COLO 205 was 0.741 µM (active); with DU-145 it was < 0.011 µM (active); in the experiment on EKVX it was 1.2 µM (inactive); in the experiment with HCT-116, 0.0171 µM (active); in the experiment on Hs-578T it was 3.65 µM (inactive); in the experiment on K562, 0.0309 µM (active). The GI50 with Malme-3M was 0.21 µM (active); in the experiment on NCI-H23, < 0.0109 µM (active); in the experiment on NCI/ADR-RES, 0.0118 µM (active); in the experiment with OVCAR-5, 0.19 µM (active); in the experiment with PC-3, 0.115 µM (active); with SF-295 it was 0.0102 µM (active). The GI50 in the experiment with SK-MEL-28 was 0.188 µM (active); in the experiment on SK-MEL-2 it was 0.288 µM (active); with SK-OV-3, 0.0264 µM (active); with TK-10, 3.02 µM (inactive); in the experiment with U-251 it was < 0.0115 µM (active); with UACC-257 it was 0.121 µM (active). In the experiment with UACC-62, the GI50 was < 0.01 µM (active).
Take `CC(C)(C)NC1C2CCC(C)(C1O)C2(C)C` (centres undefined): the GI50 in the experiment with COLO 205, in the experiment on DU-145, in the experiment on EKVX, in the experiment with HCT-116, with K562 and in the experiment with Malme-3M was > 100 µM (inactive) each time. In addition, the GI50 in the experiment on NCI-H23, in the experiment on NCI/ADR-RES, in the experiment with OVCAR-5, in the experiment with PC-3, in the experiment with SF-295 and in the experiment with SK-MEL-28 was > 100 µM (inactive) each time. Further, the GI50 with SK-MEL-2, in the experiment with SK-OV-3, in the experiment on T47D, with TK-10, in the experiment with U-251 and in the experiment with UACC-257 was > 100 µM (inactive) in each case. In addition, in the experiment on UACC-62, the GI50 was 3.67 µM (inactive).
Turning to `Nc1ncnc2c1ncn2-c1ccc([N+](=O)[O-])cn1`, the GI50 was > 100 µM (inactive) in the experiment on COLO 205; > 100 µM (inactive) in the experiment with DU-145; > 100 µM (inactive) with HCT-116; 61.9 µM (inactive) in the experiment with Hs-578T; > 10 µM (inactive) with K562; > 100 µM (inactive) with NCI-H23. The GI50 with NCI/ADR-RES, in the experiment with OVCAR-5, in the experiment with SF-295, in the experiment with SK-MEL-28, with SK-MEL-2 and with SK-OV-3 was > 100 µM (inactive) each time. Further, the GI50 in the experiment on T47D, in the experiment with TK-10, in the experiment on U-251, in the experiment on UACC-257 and in the experiment on UACC-62 was > 100 µM (inactive) in each case.
As for `CCCCC[C@@H]1OC(=O)[C@@]2(CC3c4ccccc4C2c2ccccc23)[C@H]1C(=O)OC`, the GI50 is 14.2 µM (inactive) in the experiment with COLO 205; > 100 µM (inactive) with DU-145; 39.7 µM (inactive) with EKVX; 12.4 µM (inactive) with HCT-116; > 100 µM (inactive) in the experiment on Hs-578T; 15.8 µM (inactive) with K562. The GI50 with Malme-3M is 53.2 µM (inactive); with NCI-H23, 21.9 µM (inactive); with NCI/ADR-RES, 64.6 µM (inactive); in the experiment on OVCAR-5, > 100 µM (inactive); in the experiment with PC-3, 14.6 µM (inactive); in the experiment on SF-295 it was 71 µM (inactive). In addition, the GI50 in the experiment on SK-MEL-2 is 28.4 µM (inactive); in the experiment with SK-OV-3, 84.7 µM (inactive); with TK-10 it was 35.9 µM (inactive); in the experiment with U-251, 45 µM (inactive); with UACC-257, 14.5 µM (inactive); with UACC-62, 9.29 µM (inactive).
Turning to `Cc1ccc(C(O)c2cnc(C)n2Cc2ccccc2)cc1` (centres undefined), the GI50 in the experiment on COLO 205, in the experiment with DU-145, in the experiment on EKVX, in the experiment on HCT-116, in the experiment with Hs-578T and in the experiment with K562 was > 100 µM (inactive) each time. Besides, the GI50 in the experiment with Malme-3M is > 100 µM (inactive); in the experiment with NCI-H23, > 100 µM (inactive); with NCI/ADR-RES, 85.3 µM (inactive); in the experiment on OVCAR-5, > 100 µM (inactive); in the experiment with PC-3, > 100 µM (inactive); in the experiment with SF-295, > 100 µM (inactive). Besides, the GI50 in the experiment on SK-MEL-28 was > 100 µM (inactive); in the experiment with SK-MEL-2, > 100 µM (inactive); in the experiment on SK-OV-3, > 100 µM (inactive); in the experiment on TK-10, > 100 µM (inactive); in the experiment with U-251 it was > 100 µM (inactive); in the experiment on UACC-257 it was 67.1 µM (inactive). In the experiment with UACC-62, the GI50 was > 100 µM (inactive).
Turning to `Cc1ccc2c(c1)[nH]c(=S)n2C=C(C(N)=O)C(N)=O`, the GI50 is > 100 µM (inactive) with COLO 205; > 100 µM (inactive) in the experiment on DU-145; 33.3 µM (inactive) in the experiment with EKVX; > 100 µM (inactive) in the experiment on HCT-116; > 100 µM (inactive) in the experiment with NCI-H23; > 100 µM (inactive) with NCI/ADR-RES. For the same compound, the GI50 in the experiment with OVCAR-5, in the experiment on SF-295, in the experiment on SK-MEL-28, with SK-MEL-2, with SK-OV-3 and in the experiment on T47D was > 100 µM (inactive) each time. The GI50 in the experiment with TK-10, in the experiment on U-251, in the experiment on UACC-257 and with UACC-62 was > 100 µM (inactive) in each case.
